What follows are molecules tested against Nanoluciferase-BRD9 fusion protein (3×FLAG-NLuc-BRD9) in SYO-1 cells (Homo sapiens (Human), UniProt Q9H8M2) (assay: SYO1 BRD9 NanoLuc degradation assay). Conditions: SYO-1 cells expressing 3×FLAG-NLuc-BRD9, 6 hours incubation, top dose 1 μM.
Type: cell-based
In short: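 Degradation read as loss of NLuc signal after 6 h compound exposure (1 μM top final, 3-fold steps, 10 points, duplicates) in SYO-1 cells stably carrying 3×FLAG-NLuc-BRD9. Signal normalised between DMSO-treated cells and cells given 1 μM of a known BRD9 degrader.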

Sequence of Nanoluciferase-BRD9 fusion protein (3×FLAG-NLuc-BRD9) in SYO-1 cells (Q9H8M2 whole entry, the tested form may be a part): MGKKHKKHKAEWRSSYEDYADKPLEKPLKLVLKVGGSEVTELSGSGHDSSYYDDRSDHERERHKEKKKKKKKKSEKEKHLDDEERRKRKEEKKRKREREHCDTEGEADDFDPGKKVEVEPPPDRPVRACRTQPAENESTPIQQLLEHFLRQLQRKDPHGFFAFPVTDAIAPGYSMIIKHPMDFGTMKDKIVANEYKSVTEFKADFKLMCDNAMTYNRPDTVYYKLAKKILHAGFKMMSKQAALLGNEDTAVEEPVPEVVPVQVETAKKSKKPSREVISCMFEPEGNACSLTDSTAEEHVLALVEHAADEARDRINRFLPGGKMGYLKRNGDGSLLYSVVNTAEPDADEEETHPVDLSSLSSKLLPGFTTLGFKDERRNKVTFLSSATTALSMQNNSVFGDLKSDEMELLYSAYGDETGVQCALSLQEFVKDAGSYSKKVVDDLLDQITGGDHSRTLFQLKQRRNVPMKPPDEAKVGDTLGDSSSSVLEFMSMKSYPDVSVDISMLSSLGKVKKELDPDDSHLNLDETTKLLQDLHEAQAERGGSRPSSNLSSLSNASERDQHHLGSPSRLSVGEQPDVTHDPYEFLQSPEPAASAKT

`[2H]C([2H])([2H])NC(=O)N1CCc2c(-c3cc(OC)c(CN4CCN(CCC5CCN(c6ccc7c(c6)C(=O)N(C6CCC(=O)NC6=O)C7=O)CC5)CC4)c(OC)c3)cn(C)c(=O)c2C1` (stereo not shown) [Compound D48] and `CNC(=O)N1CCc2c(-c3cc(OC)c(CN4CCC(CCN5CCCN(c6ccc7c(c6)C(=O)N(C6CCC(=O)NC6=O)C7=O)CC5)CC4)c(OC)c3)cn(C)c(=O)c2C1` (stereo not shown) [Compound D198] cannot be ordered by IC50: less than 10 nM for the first, less than 10 nM for the second.

`CNC(=O)N1CCc2c(-c3cc(OC)c(CN4CCC(C(C)(C)N5CCC6(CC5)CC(Oc5ccc7c(c5)C(=O)N(C5CCC(=O)NC5=O)C7=O)C6)CC4)c(OC)c3)cn(C)c(=O)c2C1` (stereo not shown) [Compound D114] and `CNC(=O)N1CCc2c(-c3cc(OC)c(C(C)N4CCC(CN5CCC6(CC5)CC(Oc5ccc7c(c5)C(=O)N(C5CCC(=O)NC5=O)C7=O)C6)CC4)c(OC)c3)cn(C)c(=O)c2C1` (stereo not shown) [Compound D106] cannot be ordered by IC50: less than 10 nM for the first, less than 10 nM for the second.

`CNC(=O)N1CCc2c(-c3cc(OC)c(CN4CCC(CN5Cc6cc7c(cc6C5)C(=O)N(C5CCC(=O)NC5=O)C7=O)CC4)c(OC)c3)cn(C)c(=O)c2C1` (stereo not shown) [Compound D180] and `COc1cc(-c2cn(C)c(=O)c3c2CCN(C(=O)NC2CC2)C3)cc(OC)c1CN1CCC(CCN2CCN(c3ccc4c(c3)C(=O)N(C3CCC(=O)NC3=O)C4=O)CC2)CC1` (stereo not shown) [Compound D81] cannot be ordered by IC50: less than 10 nM for the first, less than 10 nM for the second.

First: COc1cc(-c2cn(C)c(=O)c3c2CCN(C(=O)NCC2CC4(CCN(c5ccc6c(c5)C(=O)N(C5CCC(=O)NC5=O)C6=O)CC4)C2)C3)cc(OC)c1CN(C)C (stereo not shown) [Compound D110]
Second: COc1cc(-c2cn(C)c(=O)c3c2CCN(C(=O)NCCN2CCC4(CC2)CN(c2ccc5c(c2)C(=O)N(C2CCC(=O)NC2=O)C5=O)C4)C3)cc(OC)c1CN(C)C (stereo not shown) [Compound D212]
The IC50 of the first is lower: less than 10 nM for the first, 10 to 100 nM for the second. The first is the more potent here.

First: CNC(=O)N1CCc2c(-c3cc(OC)c(CN4CCC5(CC4)CN(C(=O)CCCOc4ccc6c(c4)C(=O)N(C4CCC(=O)NC4=O)C6=O)CCO5)c(OC)c3)cn(C)c(=O)c2C1 (stereo not shown) [Compound D203]
Second: COc1cc(-c2cn(C)c(=O)c3c2CCN(C(=O)NCC2CC24CCN(CCCOc2ccc5c(c2)C(=O)N(C2CCC(=O)NC2=O)C5=O)CC4)C3)cc(OC)c1CN(C)C (stereo not shown) [Compound D242]
The IC50 of the first is lower: 10 to 100 nM for the first, 100 to 1000 nM for the second.

`CNC(=O)N1CCc2c(-c3cc(OC)c(CN4CCN(CCC5CCN(c6ccc7c(c6)C(=O)N(c6ccc(F)cc6F)C7=O)CC5)CC4)c(OC)c3)cn(C)c(=O)c2C1` [Compound D70] and `CNC(=O)N1CCc2c(c(-c3cc(OC)c(CN(C)CCOCCN4CCN(c5ccc6c(c5)C(=O)N(C5CCC(=O)NC5=O)C6=O)CC4)c(OC)c3)cn(C)c2=O)C1` (stereo not shown) [Compound D296] cannot be ordered by IC50: no less than 1000 nM for the first, no less than 1000 nM for the second.

Compared with `COc1cc(-c2cn(C)c(=O)c3c2CCN(C(=O)NC2CCC4CN(c5ccc6c(c5)C(=O)N(C5CCC(=O)NC5=O)C6=O)CC42)C3)cc(OC)c1CN(C)C` (stereo not shown) [Compound D119], `CNC(=O)N1CCc2c(-c3cc(OC)c(CN4CC5(CCN(C(C)(C)C#Cc6ccc7c(c6)C(=O)N(C6CCC(=O)NC6=O)C7=O)CC5)C4)c(OC)c3)cn(C)c(=O)c2C1` (stereo not shown) [Compound D126] is higher in IC50: less than 10 nM for the first, 100 to 1000 nM for the second.

Same assay, conditions: SYO-1 cells, 6 hours, Table 6C

First: [2H]C([2H])([2H])n1cc(-c2cc(OC)c(CN3CCN(CCC4CCN(c5ccc6c(c5)C(=O)N(C5CCC(=O)NC5=O)C6=O)CC4)CC3)c(OC)c2)c2c(c1=O)CN(C(=O)NCC(F)F)CC2 (stereo not shown) [Compound D328]
Second: CNC(=O)N1CCc2c(-c3cc(OC)c(CN4CCC(CN5CCC6(CC5)CC(Oc5ccc7c(c5)C(=O)N(C5CCC(=O)NC5=O)C7=O)C6)CC4)c(OC)c3)cn(CF)c(=O)c2C1 (stereo not shown) [Compound D347]
The IC50 of the first is higher: no less than 1000 nM for the first, less than 10 nM for the second. The second is the more potent here.

`COc1cc(-c2cn(C)c(=O)c3c2CN(C(=O)F)CC3)cc(OC)c1CN1CC(CN2CCC3(CC2)CN(c2ccc4c(c2)C(=O)N(C2CCC(=O)NC2=O)C4)C3)C1` (stereo not shown) [Compound D349] and `COc1cc(-c2cn(C)c(=O)c3c2CCC3)cc(OC)c1CN1CCC2(CC1)CN(c1ccc3c(c1)C(=O)N(C1CCC(=O)NC1=O)C3)C2` (stereo not shown) [Compound D356] cannot be ordered by IC50: no less than 10 nM for the first, less than 10 nM for the second.

With `COc1cc(-c2cn(C)c(=O)c3c2CCC3)cc(OC)c1CN1CCC2(CC1)CN(c1cccc(N3CCC(=O)NC3=O)c1)C2` [Compound D375] the IC50 was no less than 1000 nM.
